Source: patent publication US20260209294A1, “USE OF RECOMBINANT PROTEIN IN PREPARING DRUG FOR INHIBITING ANEURYSM” (HUAZHONG UNIVERSITY OF SCIENCE AND TECHNOLOGY, priority 2022, published 2026)

How the values were obtained:
[1] = test system: VSMC cells; assay: VSMC incubated in vitro with TGF-β1 or pirfenidone (PFD): Western blot, ELISA, RT-PCR; format: cell-based; conditions: for level of AGGF1: Western blot, treatment 2 days and 4 days
Procedure: The VSMCs are starved for 12 hours prior to stimulation with TGF-β1. […] Normalized to β-actin. *, P<0.05; **, P<0.01; ***, P<0.001; n≥4/group for the study.
In FIG. 11, we used VSMC in vitro incubated with TGF-β1 and pirfenidone (PFD). […] In FIG. 12, we used Aggf1 systemic knockout mice for experiments.

[2] = test system: TAC-induced carotid artery dilation, remodeling, and inflammation; assay: Pirfenidone in TAC model in WT and Aggf1+/- mice; format: in vivo; conditions: for level of AGGF1 in the RCA / level of p-ERK1/2 in the RCA / level of p-Smad3 in the RCA: Western blot; for expansion of the right carotid artery / ratio of the flow velocity between right/left carotid: 3 weeks after TAC; for right carotid artery inflammation (MCP1 and CD68) / right carotid artery vascular remodeling (H&E staining, Sirius red and αSMA): after TAC
From the text: The bar graphs below show the intimal thickness (1st graph), the adventitia thickness (2nd graph), the total carotid artery wall thickness (3rd graph), the medial cell density (4th graph), and the adventitia cell density (5th graph). […] The bar graphs on the right show the percentage of the positive area for the respective immunostaining quantification. […] The GAPDH serves as a loading control. *, P<0.05; **, P<0.01; ***, P<0.001; n=5/group for mouse studies, other sample sizes n=4/group. In FIG. 11, we used VSMC in vitro incubated with TGF-β1 and pirfenidone (PFD). […] In FIG. 12, we used Aggf1 systemic knockout mice for experiments.

[3] = Aggf1 heterozygous knockout mice (Aggf1+/-)

Compound | mRNA levels of Tgfb1 and Tgfb2 ([1]; RT-PCR, after 2 days) | synthesis of the mature TGF-β1 ([1]; Western blot 2 and 4 days, ELISA 2 days) | level of AGGF1 [1] | level of AGGF1 in the RCA ([2]; Aggf1+/- mice after TAC) | level of p-ERK1/2 in the RCA ([2]; Aggf1+/- mice after TAC) | level of p-Smad3 in the RCA ([2]; Aggf1+/- mice after TAC) | expansion of the right carotid artery [2, 3] | ratio of the flow velocity between right/left carotid [2, 3] | right carotid artery inflammation (MCP1 and CD68) [2, 3] | right carotid artery vascular remodeling (H&E staining, Sirius red and αSMA) [2, 3] | level of AGGF1 in the RCA ([2]; WT mice after TAC) | level of p-ERK1/2 in the RCA ([2]; WT mice after TAC) | level of p-Smad3 in the RCA ([2]; WT mice after TAC) | expansion of the right carotid artery ([2]; WT mice) | ratio of the flow velocity between right/left carotid ([2]; WT mice) | right carotid artery inflammation (MCP1 and CD68) ([2]; WT mice) | right carotid artery vascular remodeling (H&E staining, Sirius red and αSMA) ([2]; WT mice)
Cc1ccc(=O)n(-c2ccccc2)c1 [PFD, pirfenidone] | no effect | inhibited | increased | did not have this effect | did not have this effect | did not have this effect | did not possess such effects | did not possess such effects | did not possess such effects | did not possess such effects | significantly increase | reduce | reduce | significantly reduce | significantly reduce | significantly reduce | significantly reduce
TGF-β1: TGF-β1 used to stimulate VSMC cells in vitro | – | – | inhibit | – | – | – | – | – | – | – | – | – | – | – | – | – | –
